We go through 25 molecules from patent US8937068B2, “Pyridopyrazine derivatives and their use” (Zentaris GmbH, priority 2005, dated 2015).

For orientation: melting point means the temperature of the solid-liquid transition. `COc1ccc(-c2cnc3ccc(NC(=S)Nc4ccc([N+](=O)[O-])cc4)nc3n2)cc1` [Compound 9, 1-[3-(4-methoxy-phenyl)-pyrido[2,3-b]pyrazin-6-yl]-3-(4-nitro-phenyl)-thiourea]: the melting point is 250 to 251 °C (dec.).
For `CC(C)(C)NC(=S)Nc1ccc2ncc(-c3ccccc3)nc2n1` [Compound 10, 1-tert.butyl-3-(3-phenyl-pyrido[2,3-b]pyrazin-6-yl)-thiourea], the melting point was 227 °C (dec.).
The figure for `S=C(Nc1ccc2ncc(-c3ccccc3)nc2n1)NC1CC1` [Compound 11, 1-cyclopropyl-3-(3-phenyl-pyrido[2,3-b]pyrazin-6-yl)-thiourea] is 233 to 234 °C.
For the molecule `CNC(=S)Nc1ccc2ncc(-c3ccccc3)nc2n1` [Compound 12, 1-methyl-3-(3-phenyl-pyrido[2,3-b]pyrazin-6-yl)-thiourea], the melting point lay within 253 to 254 °C.
`S=C(NCc1ccccc1)Nc1ccc2ncc(-c3ccccc3)nc2n1` [Compound 13, 1-benzyl-3-(3-phenyl-pyrido[2,3-b]pyrazin-6-yl)-thiourea] registered a melting point of 232 to 233 °C.
`Fc1ccc(NC(=S)Nc2ccc3ncc(-c4ccccc4)nc3n2)cc1` [Compound 14, 1-(4-fluoro-phenyl)-3-(3-phenyl-pyrido[2,3-b]pyrazin-6-yl)-thiourea] yielded a melting point of 225 to 226 °C.
As to `Cc1ccc(NC(=O)Nc2ccc3ncc(-c4ccccc4)nc3n2)cc1` [Compound 15, 1-(3-phenyl-pyrido[2,3-b]pyrazin-6-yl)-3-p-tolyl-urea], the melting point lay in the range of 298 to 299 °C.
With `O=C(Nc1ccc(Cl)c(C(F)(F)F)c1)Nc1ccc2ncc(-c3ccccc3)nc2n1` [Compound 16, 1-(4-chloro-3-trifluoromethyl-phenyl)-3-(3-phenyl-pyrido[2,3-b]pyrazin-6-yl)-urea] the figure was 250 °C.
The molecule `O=C(NCCN1CCOCC1)Nc1ccc2ncc(-c3ccccc3)nc2n1` [Compound 17, 1-(2-Morpholin-4-yl-ethyl)-3-(3-phenyl-pyrido[2,3-b]pyrazin-6-yl)-urea] gave a melting point of 226 °C.
In turn, `S=C(Nc1ccc2ncc(-c3ccccc3)nc2n1)NC1CCCCC1` [Compound 18, 1-cyclohexyl-3-(3-phenyl-pyrido[2,3-b]pyrazin-6-yl)-thiourea] showed a melting point of 230 to 232 °C.
The figure for `CC(C)NC(=S)Nc1ccc2ncc(-c3ccccc3)nc2n1` [Compound 19, 1-isopropyl-3-(3-phenyl-pyrido[2,3-b]pyrazin-6-yl)-thiourea] is 229 to 230 °C; for `S=C(NCc1ccco1)Nc1ccc2ncc(-c3ccccc3)nc2n1` [Compound 20, 1-furan-2-ylmethyl-3-(3-phenyl-pyrido[2,3-b]pyrazin-6-yl)-thiourea] it is 250 °C (dec.).
As for `O=C(Nc1ccc2ncc(-c3ccccc3)nc2n1)NC1CC1` [Compound 21, 1-cyclopropyl-3-(3-phenyl-pyrido[2,3-b]pyrazin-6-yl)-urea], the melting point is 158 to 160 °C.
As to `CNC(=S)Nc1ccc2ncc(-c3ccc([N+](=O)[O-])cc3)nc2n1` [Compound 22, 1-methyl-3-[3-(4-nitro-phenyl)-pyrido[2,3-b]pyrazin-6-yl]-thiourea], the melting point was 270 °C.
The figure for `C=CCNC(=S)Nc1ccc2ncc(-c3ccc([N+](=O)[O-])cc3)nc2n1` [Compound 24, 1-allyl-3-[3-(4-nitro-phenyl)-pyrido[2,3-b]pyrazin-6-yl]-thiourea] is 244 °C (dec.).
The figure for `C=CCNC(=S)Nc1ccc2ncc(-c3ccc(C(=O)OCC)cc3)nc2n1` [Compound 26, 4-[6-(3-allyl-thioureido)-pyrido[2,3-b]pyrazin-3-yl]-benzoic acid ethyl ester] is 223 to 224 °C; for `C=CCNC(=S)Nc1ccc2ncc(-c3cccc(O)c3)nc2n1` [Compound 27, 1-allyl-3-[3-(3-hydroxy-phenyl)-pyrido[2,3-b]pyrazin-6-yl]-thiourea] it is 205 °C (dec.).
Consider `C=CCNC(=S)Nc1ccc2ncc(-c3ccc4c(c3)OCO4)nc2n1` [Compound 28, 1-allyl-3-(3-benzo[1,3]dioxol-5-yl-pyrido[2,3-b]pyrazin-6-yl)-thiourea], for which the melting point is 218 to 220 °C (dec.).
Turning to `C=CCNC(=S)Nc1ccc2nc(-c3ccc(O)cc3)c(-c3ccc(O)cc3)nc2n1` [Compound 32, 1-allyl-3-[2,3-bis-(4-hydroxy-phenyl)-pyrido[2,3-b]pyrazin-6-yl]-thiourea], the melting point was 270 °C (dec.).
With `C/C=C/NC(=S)Nc1ccc2nc(-c3ccc(O)cc3)c(-c3ccc(O)cc3)nc2n1` [Compound 33, 1-[2,3-bis-(4-hydroxy-phenyl)-pyrido[2,3-b]pyrazin-6-yl]-3-((E)-propenyl)-thiourea] the figure was 240 °C (dec.).
With `C=CCNC(=S)Nc1ccc2nc(-c3ccc(O)cc3)cnc2n1` [Compound 34, 1-allyl-3-[2-(4-hydroxy-phenyl)-pyrido[2,3-b]pyrazin-6-yl]-thiourea], the melting point is 260 °C (dec.).
For the molecule `O=C(NCCc1ccccc1)Nc1ccc2ncc(-c3ccccc3)nc2n1` [Compound 35, 1-Phenethyl-3-(3-phenyl-pyrido[2,3-b]pyrazin-6-yl)-urea], the melting point is 250 °C (dec.).
For `CCNC(=O)Nc1ccc2nc(-c3ccccn3)c(-c3ccccn3)nc2n1` [Compound 36, 1-(2,3-Di-pyridin-2-yl-pyrido[2,3-b]pyrazin-6-yl)-3-ethyl-urea], the melting point was in the range of 236 to 237 °C.
As for `CCNC(=O)Nc1ccc2nc(C)c(C)nc2n1` [Compound 37, 1-(2,3-Dimethyl-pyrido[2,3-b]pyrazin-6-yl)-3-ethyl-urea], the melting point fell in the range of 246 to 248 °C.
For the molecule `C=CCNC(=S)Nc1cnc2nc(-c3ccc([N+](=O)[O-])cc3)cnc2c1` [Compound 137, 1-Allyl-3-[3-(4-nitro-phenyl)-pyrido[2,3-b]pyrazin-7-yl]-thiourea], the melting point was 250 °C (dec.).
